In US10981932B2, “Macrocyclic indole derivatives” (Bayer Aktiengesellschaft, priority 2016, dated 2021):
Structures can show the parent of a compound that is named as a salt. Where two headings read alike, the source gives them in different places.

Assays:
A2780 = experiment: Anti-proliferative effect (CellTiter-Glo, 72 h), A2780; type: cell-based; details: A2780 cells, median, read-out: IC50 antiproliferation assay A2780 [M] (median)
How it was run: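 Endpoint: CellTiter-Glo luminescence, 10 min after reagent addition. Treatment ran 72 h at 37 °C, humidified. Growth was referenced to a separately plated day 0 plate.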

SUDHL10 = experiment: Induction of caspase-3/7 activity (Caspase-Glo 3/7), SUDHL10; type: cell-based; details: caspase-3/7 induction, SUDHL10 cells, 3 h treatment, median
How it was run: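 A 3 h, 37 °C compound incubation precedes the Caspase-Glo 3/7 read. After subtracting medium-only signal, EC50s are fitted against the reference compound's maximal caspase induction.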

BCL-2 = molecular target: T1, BCL-2 (Homo sapiens, UniProt P10415); experiment: Protein-protein interaction assay BCL-2/Bad BH3 peptide (BCL-2 assay), TR-FRET; type: binding; details: His-BCL-2 / Bad BH3-derived peptide, median
T1 construct: BCL-2 (amino acids 1-211, C-terminal fused to a hexahistidine (6×His) tag); purchased BPS Bioscience (San Diego, Calif., USA); host or cells: E. coli
T1 sequence (P10415 1-211): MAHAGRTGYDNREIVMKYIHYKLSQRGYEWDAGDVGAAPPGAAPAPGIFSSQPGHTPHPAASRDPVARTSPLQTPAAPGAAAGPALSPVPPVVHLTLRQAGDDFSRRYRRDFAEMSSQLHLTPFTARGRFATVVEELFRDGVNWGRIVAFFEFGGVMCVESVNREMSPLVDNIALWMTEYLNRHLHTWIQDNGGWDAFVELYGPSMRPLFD
Protocol: Protein-Protein Interaction Assay: BCL-2/Bad BH3 Peptide (BCL-2 Assay)
The dose-dependent inhibition by the compounds described in this invention of the interaction between BCL-2 and the BH3 domain of Bad (both human) was determined using a steady state binding competition assay with time-resolved fluorescence energy transfer (TR-FRET) readout. For that purpose BCL-2 (amino acids 1-211, C-terminal fused to a hexahistidine (6×His) tag and a synthetic Bad BH3-derived peptide of sequence Biotin-PEG2-PEG2-NLWAAQRYGRELRR-Nle-SDEFVDSFKK-amide (SEQ ID NO: 2) served as protein receptor and tracer ligand respectively. The recombinant BCL-2 protein (expressed in E. coli) was purchased from BPS Bioscience (San Diego, Calif., USA). The Bad BH3-derived peptide can be obtained from e.g. Biosyntan (Berlin, Germany).
In the assay 11 different concentrations of each compound (0.1 nM, 0.33 nM, 1.1 nM, 3.8 nM. 13 nM, 44 nM, 0.15 μM, 0.51 μM, 1.7 μM, 5.9 μM and 20 μM) were typically measured as duplicates in the same microtiter plate. For that, 100-fold concentrated DMSO solutions were prepared by serial dilutions (1:3.4) of a 2 mM stock solution in a clear, 384-well microtiter plate (Greiner Bio-One, Frickenhausen, Germany). From there, 50 nl were transferred in a dark test plate (Greiner Bio-One. Frickenhausen, Germany). The assay was initiated by addition of 2 μl of a 2,5-fold concentrated His-BCL-2 solution (usually for a 1 nM end concentration in 5 μl reaction volume) in aqueous assay buffer [50 mM Tris/HCl pH 7, 100 mM sodium chloride (NaCl), 50 mM potassium fluoride (KF), 0.005% Tween-20, 2 mM DTT, 0.1% bovine gamma globulin (BGG)] to the compounds in the assay plate. This was followed by a 10-minute incubation step at 22° C. for pre-equilibration of the putative complex between His-BCL-2 and the compounds.
The mixture was incubated in the dark for one hour at 22° C. and then overnight at 4° C. The formation of BCL-2/Bad complexes was determined by measuring the resonance energy transfer of the anti-His-Eu-cryptate antibody to the streptavidin-XL665 present in the reaction. For that purpose, the fluorescence emission at 620 nm and 665 nm after excitation at 330-350 nm was measured in a TR-FRET measuring instrument, for instance a Rubystar or a Pherastar (both from BMG Lab Technologies. Offenburg, Germany) or a Viewlux (Perkin-Elmer). The ratio of the emission at 665 nm and at 622 nm was used as indicator of the amount of BCL-2/Bad complexes present.
The resulting data (ratio) were normalized, taking 0% inhibition as the mean value of control measurements (usually 32 data points) where all reagents were included. In this case 50 nl DMSO were used instead of compounds. A 100% inhibition corresponded to the mean value of control measurements (usually 32 data points) where all reagents except BCL-2 were included. IC50 values were determined by regression analysis based on a 4 parameter equation (minimum, maximum, IC50, Hill; Y=Max+(Min−Max)/(1+(X/IC50)^Hill) using the Screener Software (Genedata).

## Cc1ccc2c(CCCOc3cccc4c3CCCC4)c(C(=O)O)n3c2c1-c1c(C)nn(C)c1COCCCC3 (racemic) [Example 039, (rac)-1,3,4-trimethyl-7-[3-(5,6,7,8-tetrahydronaphthalen-1-yloxy)propyl]-110,11,12,13,15-hexahydropyrazolo[4′3′:9,10][1,6]oxazacycloundecino[8,7,6-hi]indole-8-carboxylic Acid]
A2780; Homo sapiens, A2780, 72 h
  IC50: 2.14e-05 M
SUDHL10; Homo sapiens, SU-DHL10, 3 h
  EC50: 24.8 µM
BCL-2
  IC50: > 20 µM

## Cc1nn(C)c2c1-c1cccc3c(CCCOc4cccc5cc(F)ccc45)c(C(=O)O)n(c13)CCCCOC2 (single isomer, unassigned; enantiomer 1) [Example 019, 7-{3-[(6-fluoronaphthalen-1-yl)oxy]propyl}-1,3-dimethyl-1,10,11,12,13,15-hexahydropyrazolo[4′,3′:9,10][1,6]oxazacycloundecino[8,7,6-hi]indole-8-carboxylic Acid-N-ethylethanamine Salt (Enantiomer 1)]
A2780
  IC50: > 3.3e-05 M
SUDHL10
  EC50: 5.16 µM
BCL-2
  IC50: > 20 µM

## Cc1nn(C)c2c1-c1cccc3c(CCCOc4cccc5cc(Cl)ccc45)c(C(=O)O)n(c13)CCCCOC2 (single isomer, unassigned; enantiomer 1) [Example 041, 7-{3-[(6-chloronaphthalen-1-yl)oxy]propyl}-1,3-dimethyl-1,10,11,12,13,15-hexahydropyrazolo[4′,3′:9,10][1,6]oxazacycloundecino[8,7,6-hi]indole-8-carboxylic acid-N-ethylethanamine Salt (Enantiomer 1)]
A2780; Homo sapiens, A2780, 72 h
  IC50: 1.81e-05 M
SUDHL10; Homo sapiens, SU-DHL10, 3 h
  EC50: 18.2 µM
BCL-2
  IC50: > 20 µM

## Cc1ccc2c(CCCOc3cccc4ccccc34)c(C(=O)O)n3c2c1-c1c(nn(C)c1C)CN(C)CCC3 (single isomer, unassigned; enantiomer 1) [Example 073, 7,10,11,12-tetramethyl-1-[3-(naphthalen-1-yloxy)propyl]-4,5,6,7,8,10-hexahydropyrazolo[3′,4′:7,8][1,5]diazecino[9,10,1-hi]indole-2-carboxylic Acid (Enantiomer 1)]
A2780; Homo sapiens, A2780, 72 h
  IC50: 1.4e-05 M
SUDHL10
  EC50: 2.94 µM
BCL-2
  IC50: > 20 µM

## CCn1nc2c(c1C1CC1)-c1cccc3c(CCCOc4cccc5ccccc45)c(C(=O)O)n(c13)CCCCOC2 (single isomer, unassigned; enantiomer 1) [Example 082, 3-cyclopropyl-2-ethyl-7-[3-(naphthalen-1-yloxy)propyl]-2,10,11,12,13,15-hexahydropyrazolo[4′,3′:9,10][1,6]oxazacycloundecino[8,7,6-hi]indole-8-carboxylic acid-N-ethylethanamine Salt (Enantiomer 1)]
A2780; Homo sapiens, A2780, 72 h
  IC50: 1.68e-05 M
SUDHL10; Homo sapiens, SU-DHL10, 3 h
  EC50: 30.5 µM
BCL-2
  IC50: > 20 µM

## COCCn1nc2c(c1C1CC1)-c1cccc3c(CCCOc4cccc5ccccc45)c(C(=O)O)n(c13)CCCCOC2 (single isomer, unassigned; enantiomer 1) [Example 085, 3-Cyclopropyl-2-(2-methoxyethyl)-7-[3-(naphthalen-1-yloxy)propyl]-2,10,11,12,13,15-hexahydropyrazolo[4′,3′:9,10][1,6]oxazacycloundecino[8,7,6-hi]indole-8-carboxylic acid-N-ethylethanamine Salt (Enantiomer 1)]
A2780; Homo sapiens, A2780, 72 h
  IC50: 2.15e-05 M
SUDHL10
  EC50: 15.5 µM
BCL-2
  IC50: > 20 µM

## Cc1c2c(nn1C1CC1)COCCCCn1c(C(=O)O)c(CCCOc3cccc4ccccc34)c3cccc-2c31 (single isomer, unassigned; enantiomer 1) [Example 093, 2-cyclopropyl-3-methyl-7-[3-(naphthalen-1-yloxy)propyl]-2,10,11,12,13,15-hexahydropyrazolo[4′,3′:9,10][1,6]oxazacycloundecino[8,7,6-hi]indole-8-carboxylic acid-N-ethylethanamine Salt (Enantiomer 1)]
A2780; Homo sapiens, A2780, 72 h
  IC50: 2.71e-05 M
SUDHL10
  EC50: 6.64 µM
BCL-2
  IC50: > 20 µM
